# Assays:
# Assay in all cases: relative viability (nuclei count vs DMSO), 5 days (fraction); higher = more cells survive
# A-427 = system: A-427
# In short: (§1)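 Values are medians from duplicate plates. Each reflects relative viability, defined as the nuclei count of treated wells over that of vehicle wells. Lung cancer cell lines in 1536-well plates were pin-tool dosed one day after seeding with one drug alone or with a fixed anchor-drug dose plus five library-drug doses (not always all listed) in √10 steps, then fixed, stained and imaged at 4× after 5 days.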
# BEN = system: BEN
# In short: as §1
# COR-L23 = system: COR-L23
# In short: as §1
# EKVX = system: EKVX
# In short: as §1
# EMC-BAC-2 = system: EMC-BAC-2
# In short: as §1
# EPLC-272H = system: EPLC-272H
# In short: as §1
# HCC-44 = system: HCC-44
# In short: as §1
# LK-2 = system: LK-2
# In short: as §1
# LXF-289 = system: LXF-289
# In short: as §1
# NCI-H1651 = system: NCI-H1651
# In short: as §1
# NCI-H1793 = system: NCI-H1793
# In short: as §1
# NCI-H1915 = system: NCI-H1915
# In short: as §1
# NCI-H2087 = system: NCI-H2087
# In short: as §1
# NCI-H2228 = system: NCI-H2228
# In short: as §1
# NCI-H2347 = system: NCI-H2347
# In short: as §1
# NCI-H358 = system: NCI-H358
# In short: as §1
# NCI-H460 = system: NCI-H460
# In short: as §1
# NCI-H520 = system: NCI-H520
# In short: as §1
# NCI-H661 = system: NCI-H661
# In short: as §1
# SW 1573 = system: SW 1573
# In short: as §1
smiles,measurement,setting,value
COCC1(CO)C(=O)C2CCN1CC2 (stereo not given) [PRIMA-1MET] + Cc1nc(NC(=O)N2CCC[C@H]2C(N)=O)sc1-c1ccnc(C(C)(C)C(F)(F)F)c1 [Alpelisib] (partner 2 µM),relative viability,A-427; first compound 0.2 µM,1.04
same,relative viability,A-427; first compound 0.6325 µM,1.05
same,relative viability,A-427; first compound 2 µM,0.9
same,relative viability,A-427; first compound 6.325 µM,1.04
same,relative viability,A-427; first compound 20 µM,1.07
same,relative viability,BEN; first compound 0.2 µM,1.26
same,relative viability,BEN; first compound 0.6325 µM,0.833
same,relative viability,BEN; first compound 6.325 µM,0.909
same,relative viability,BEN; first compound 20 µM,0.994
same,relative viability,COR-L23; first compound 0.2 µM,0.783
same,relative viability,COR-L23; first compound 0.6325 µM,0.699
same,relative viability,COR-L23; first compound 2 µM,0.869
same,relative viability,COR-L23; first compound 6.325 µM,0.726
same,relative viability,COR-L23; first compound 20 µM,0.0226
same,relative viability,EKVX; first compound 0.2 µM,0.978
same,relative viability,EKVX; first compound 0.6325 µM,0.966
same,relative viability,EKVX; first compound 2 µM,0.638
same,relative viability,EKVX; first compound 6.325 µM,0.911
same,relative viability,EKVX; first compound 20 µM,0.778
same,relative viability,EMC-BAC-2; first compound 0.2 µM,0.82
same,relative viability,EMC-BAC-2; first compound 0.6325 µM,0.719
same,relative viability,EMC-BAC-2; first compound 2 µM,0.666
same,relative viability,EMC-BAC-2; first compound 6.325 µM,0.775
same,relative viability,EMC-BAC-2; first compound 20 µM,0.759
same,relative viability,EPLC-272H; first compound 0.2 µM,1.06
same,relative viability,EPLC-272H; first compound 0.6325 µM,0.784
same,relative viability,EPLC-272H; first compound 2 µM,0.869
same,relative viability,EPLC-272H; first compound 6.325 µM,0.869
same,relative viability,EPLC-272H; first compound 20 µM,0.667
same,relative viability,HCC-44; first compound 0.2 µM,0.87
same,relative viability,HCC-44; first compound 0.6325 µM,0.647
same,relative viability,HCC-44; first compound 2 µM,0.673
same,relative viability,HCC-44; first compound 6.325 µM,0.801
same,relative viability,HCC-44; first compound 20 µM,0.737
same,relative viability,LK-2; first compound 0.2 µM,1.22
same,relative viability,LK-2; first compound 0.6325 µM,0.868
same,relative viability,LK-2; first compound 2 µM,0.577
same,relative viability,LK-2; first compound 6.325 µM,0.626
same,relative viability,LK-2; first compound 20 µM,0.162
same,relative viability,LXF-289; first compound 0.2 µM,1.13
same,relative viability,LXF-289; first compound 0.6325 µM,0.973
same,relative viability,LXF-289; first compound 2 µM,1.08
same,relative viability,LXF-289; first compound 6.325 µM,1.04
same,relative viability,LXF-289; first compound 20 µM,0.939
same,relative viability,NCI-H1651; first compound 0.2 µM,0.904
same,relative viability,NCI-H1651; first compound 0.6325 µM,0.981
same,relative viability,NCI-H1651; first compound 2 µM,1.17
same,relative viability,NCI-H1651; first compound 6.325 µM,0.962
same,relative viability,NCI-H1651; first compound 20 µM,0.837
same,relative viability,NCI-H1793; first compound 0.2 µM,0.953
same,relative viability,NCI-H1793; first compound 0.6325 µM,0.676
same,relative viability,NCI-H1793; first compound 6.325 µM,0.736
same,relative viability,NCI-H1793; first compound 20 µM,0.707
same,relative viability,NCI-H1915; first compound 0.2 µM,1.15
same,relative viability,NCI-H1915; first compound 0.6325 µM,0.861
same,relative viability,NCI-H1915; first compound 2 µM,0.853
same,relative viability,NCI-H1915; first compound 6.325 µM,1.01
same,relative viability,NCI-H1915; first compound 20 µM,0.974
same,relative viability,NCI-H2087; first compound 0.2 µM,1.23
same,relative viability,NCI-H2087; first compound 0.6325 µM,0.775
same,relative viability,NCI-H2087; first compound 2 µM,1.18
same,relative viability,NCI-H2087; first compound 6.325 µM,1.28
same,relative viability,NCI-H2087; first compound 20 µM,0.901
same,relative viability,NCI-H2228; first compound 0.2 µM,1.06
same,relative viability,NCI-H2228; first compound 0.6325 µM,0.654
same,relative viability,NCI-H2228; first compound 2 µM,0.744
same,relative viability,NCI-H2228; first compound 6.325 µM,0.534
same,relative viability,NCI-H2228; first compound 20 µM,0.0746
same,relative viability,NCI-H2347; first compound 0.2 µM,1.08
same,relative viability,NCI-H2347; first compound 0.6325 µM,1.01
same,relative viability,NCI-H2347; first compound 2 µM,0.602
same,relative viability,NCI-H2347; first compound 6.325 µM,1.08
same,relative viability,NCI-H2347; first compound 20 µM,0.923
same,relative viability,NCI-H358; first compound 0.2 µM,1.17
same,relative viability,NCI-H358; first compound 0.6325 µM,0.781
same,relative viability,NCI-H358; first compound 6.325 µM,0.908
same,relative viability,NCI-H358; first compound 20 µM,0.0962
same,relative viability,NCI-H460; first compound 0.2 µM,0.571
same,relative viability,NCI-H460; first compound 0.6325 µM,0.358
same,relative viability,NCI-H460; first compound 2 µM,0.411
same,relative viability,NCI-H460; first compound 6.325 µM,0.0066
same,relative viability,NCI-H460; first compound 20 µM,0.0038
same,relative viability,NCI-H520; first compound 0.2 µM,1.21
same,relative viability,NCI-H520; first compound 0.6325 µM,0.84
same,relative viability,NCI-H520; first compound 6.325 µM,0.831
same,relative viability,NCI-H520; first compound 20 µM,0.0746
same,relative viability,NCI-H661; first compound 0.2 µM,0.617
same,relative viability,NCI-H661; first compound 0.6325 µM,0.581
same,relative viability,NCI-H661; first compound 6.325 µM,0.602
same,relative viability,NCI-H661; first compound 20 µM,0.297
same,relative viability,SW 1573; first compound 0.2 µM,0.845
same,relative viability,SW 1573; first compound 0.6325 µM,0.691
same,relative viability,SW 1573; first compound 2 µM,0.538
same,relative viability,SW 1573; first compound 6.325 µM,0.355
same,relative viability,SW 1573; first compound 20 µM,0.0324

# From the supplement of paper PMC10307832
